The test system of series [1] is P. berghei. Description: Peters' standard 4-day suppressive test.
Series [2] in a line: Rat PK, compartmental analysis.
Series [3] deals with P. falciparum strain 3D7A. The series is described as follows: In vitro parasite reduction ratio (PRR) assay. It counts as cell-based, Plasmodium falciparum.
Series [4] addresses CYP3A4 (Homo sapiens, UniProt P08684). Description: biochemical.
Series [5] in a line: Metabolic stability and metabolite profile in rat liver microsomes. The class given is in vitro ADME.
A short description of series [6]: Mouse PK, compartmental analysis.
For series [7], the target named is T1, Sigma 2 receptors (Homo sapiens, UniProt Q5BJF2).
T1 construct: CEREP
T1 sequence (Q5BJF2 whole entry): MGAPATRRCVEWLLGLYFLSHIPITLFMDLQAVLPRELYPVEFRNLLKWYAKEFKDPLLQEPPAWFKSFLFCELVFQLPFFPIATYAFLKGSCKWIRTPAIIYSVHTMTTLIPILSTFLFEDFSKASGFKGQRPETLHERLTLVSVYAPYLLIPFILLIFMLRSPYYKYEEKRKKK
The series is described as follows: CEREP radioligand binding screen, Sigma 2.

Series [8] can be described thus: Mammalian cell cytotoxicity. The class given is cell-based. To be noted: human; HeLa cells, n=3; read-out: cytotoxicity median IC50.

Sequence of CYP3A4 (P08684 whole entry): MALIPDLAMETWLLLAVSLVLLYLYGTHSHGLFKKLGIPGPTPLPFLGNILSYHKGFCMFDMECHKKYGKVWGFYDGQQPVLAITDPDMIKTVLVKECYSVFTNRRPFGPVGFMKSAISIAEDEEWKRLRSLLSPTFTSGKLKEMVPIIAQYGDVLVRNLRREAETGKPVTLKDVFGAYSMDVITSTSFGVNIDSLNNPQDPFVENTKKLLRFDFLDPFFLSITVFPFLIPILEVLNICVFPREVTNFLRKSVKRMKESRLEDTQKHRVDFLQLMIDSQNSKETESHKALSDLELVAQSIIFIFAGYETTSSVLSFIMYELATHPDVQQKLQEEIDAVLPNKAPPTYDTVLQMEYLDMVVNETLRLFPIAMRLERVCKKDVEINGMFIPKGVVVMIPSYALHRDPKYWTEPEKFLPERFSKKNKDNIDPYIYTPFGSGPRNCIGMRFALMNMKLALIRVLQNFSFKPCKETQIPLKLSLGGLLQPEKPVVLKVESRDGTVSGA

In the case of `FC1CCN(CCOc2ccc(C3CCC4(CC3)OOC3(OO4)C4CC5CC(C4)CC3C5)cc2)CC1` (stereo not drawn) [Compound E209], in series [1] (given orally, 4-day suppressive test), the parasite clearance result is on record as “complete parasite clearance”. In addition, the “estimated ED50” value in series [1] (oral, after three doses, P. berghei infected mice) was 4 mg/kg. Moreover, the “Absorption rate constant Ka” value came to 0.31 h⁻¹ in series [2] (PO 9 mg kg^−1) and 0.79 h⁻¹ in series [6] (PO 10 mg kg^−1). The clearance was 26.7 mL/min/kg in series [2] (male, Sprague-Dawley, plasma, other: intravenous and oral, fitted together); 71.7 mL/min/kg in series [6] (female, Swiss Outbred, plasma, other: intravenous and oral, fitted together). The Lag phase in series [3] (10 × IC50) was found to be 0 h. Further, the “Log PRR” value in series [3] (10 × IC50) is listed as more than 4.8. For the same molecule, the Slope in series [3] (10 × IC50) is −0.098. The “PCT 99.9 %” value in series [3] (10 × IC50, parasite clearance time) is less than 24 h. Further, the IC50 in series [4] was more than 20000 nM; in series [7] it was approximately 200 nM; in series [8] it was 2850 nM. Moreover, in series [5] (rat liver microsomes with NADPH, 60 minutes), the “% Substrate Consumed” value was 54%. In addition, the “Microsome-Predicted EH” value is recorded as 0.48 in series [5] (rat liver microsomes, substrate 1 µM) and 0.45 in series [5] (rat liver microsomes, substrate 5 µM). Further, in series [5] (rat liver microsomes, substrate 1 µM, read-out: Degradation half-life), the half-life at 1 µM was determined as 48 min. For the same molecule, the microsomal CLint at 1 µM in series [5] (rat liver microsomes, substrate 1 µM, read-out: In vitro CLint) turned out to be 36 µL/min/mg. In addition, in series [5] (rat liver microsomes, substrate 5 µM, read-out: Degradation half-life), the half-life at 5 µM is 54 min. In addition, the microsomal CLint at 5 µM in series [5] (rat liver microsomes, substrate 5 µM, read-out: In vitro CLint) came to 32 µL/min/mg. This molecule also gave a bioavailability in series [6] (female, Swiss Outbred, plasma, oral, 10 mg kg^−1) of 82%.

Source of the values: publication PMC5458052 (Nature Communications, 2017).
